Measurements from patent US20040138301A1, “Chemical uncouplers for the treatment of obesity” (priority 2002, published 2004).
Like-named read-outs stand apart in the source and are kept apart here.

Test system: HEP-G2 cells
Experiment: cells
Conditions: for EC50 / Emax / EC (Emax): Homo sapiens; for EC50: HepG2, 3 h
Method: Assay (I): Glucose utilisation in a human hepatocytes cell line (HEP-G2 cells)
The assay measures indirectly the activity of the respiratory chain in HEP-G2 cells by using D-(3-^3H(N))-glucose. The ^3H-proton will first be released during the metabolism of glucose where it will be incorporated into water. The water is thereafter separated from the D-(3-^3H(N))-glucose by evaporation. Finally, the radioactivity in the water is determined using a Topcounter.
HEP-G2 cells obtained from ATCC (Maryland, USA), are cultured in assay medium (MEM medium) with the following addition 1× non-essential amino acids (M7145, 2 mM glutamine, 100 units/ml penicillin and streptomycin, 0.0075% sodium bicarbonate, 1 mM sodium pyrovate and 0.5% BSA (Bovin Serum Albumin, Sigma Missouri, USA)) at 37° C. and 5% CO2. All media are obtained by Gibco (Life Technologies, Maryland, USA) where not otherwise mentioned.
At day zero the cells are harvested using trypsin-EDTA and washed in assay medium using centrifugation. […] The cells are then incubated at 37° C. and 5% CO2 overnight.
The next day the compounds to be tested are diluted in DMSO (Sigma, Missouri, USA) to 100 times final concentration. They are then diluted to a final concentration in assay medium containing 10 μCi/ml D-(3-^3H(N))-glucose (PerkinElmer Life Sciences Inc., Boston, USA). The medium is removed from the cells and 200 μl of the compound dilutions are added in duplicates. The cells are then incubated for another 3 hours at 37° C. and 5% CO2. Finally the cells are lysed by adding 50 μl 10% TCA (trichloroacetic acid). 300 μl of sterile water is then added to the 24-wells that surrounds the StripPlate wells. The plate is sealed with Top-seal-tape (Packard, PerkinElmer Life Sciences Inc., Boston, USA) and the plate is incubated in a heating cupboard at 50° C. to equilibrium the radioactive water formed in the respiratory chain into the water in the 24-well plate by evaporate. The plates incubate for 8 hours where the heating cupboard is turned off. The top seal is removed when the samples have reached room temperature. One ml scintillation liquid (Packard Microscient, PerkinElmer Life Sciences Inc., Boston, USA) is added to all the samples and the radioactivity is determined using a Topcounter (Packard, PerkinElmer Life Sciences Inc., Boston, USA). Non-specific activity is determined by evaporating 200 μl of the dilution medium containing the D-(3-^3H(N))-glucose into 300 μl sterile water, and total radioactivity is determined by counting 5 μl assay medium with 10 μCi/ml D-(3-^3H(N))-glucose.
The cpm (counts per minute) representing the non-specific radioactivity in the D-(3-^3H(N))-glucose is subtracted from all incubated values. Then mean basal value (samples without any compound added) is subtracted from the values of all stimulated samples (samples added different concentrations of the different test compounds). All these calculations are done using GraphPad Prism 3.0 (GraphPad software, Inc.). The maximal stimulation caused by the test compounds is calculated in percentage of maximal stimulation caused by either DNP or FCCP.
When calculating the concentration-response curve the maximal glucose utilisation stimulated by FCCP or DNP (subtracted non-specific and basal values) is converted to 100% and all the other values are expressed in percentage of this value. Using these percentage values and the compound concentration a concentration-response curve is calculated using sigmoidal dose-response (variable slope) equation (all the calculations are done by GraphPad Prism 3.0 (GraphPad software, Inc.));
Y=Bottom+(Top−Bottom)/(1+10^((LogEC50-X)*slope))
X is the logarithm of the molar concentration of the test compound.
Y is the degree of stimulation caused by the compound measured as a percentage of the maximal stimulation achieved by use of FCCP or DNP.
The results achieved with these concentrations are used to determine the slope in this area using the following equation: […]

[1] = read-out: HEP-G2 EC50, HEP-G2 cells, glucose utilisation, 3 hours incubation
[2] = HepG2, read-out: HEP-G2 Emax (% of FCCP), HEP-G2 cells, maximal stimulation relative to FCCP
[3] = HepG2, read-out: HEP-G2 Emax (μM), HEP-G2 cells, concentration at which Emax is achieved (CEmax)
[4] = HepG2, read-out: HEP-G2 Emax (% of FCCP)
[5] = HepG2, read-out: HEP-G2 Emax (μM)

SMILES | EC50 [1] [µM] | Emax [2] [%] | EC (Emax) [3] [µM] | EC50 (read-out: HEP-G2 EC50) [µM] | Emax [4] [%] | EC (Emax) [5] [µM] | HEP-G2 Tox (concentration with sign of toxicity (significant drop in glucose utilisation)) | HEP-G2 Tox (human, 3 h)
COc1ccc(O)c([N+](=O)[O-])c1 [Example 2, 4-Methoxy-2-Nitrophenol] | 290 | 35 | 1000 |  |  |  |  | 
CC(=O)c1ccc(O)c([N+](=O)[O-])c1 [Example 3, 4-Hydroxy-3-Nitroacetophenone] | 270 | 75 | 1000 |  |  |  |  | 
N#Cc1ccc(NC(=O)c2cc(C(F)(F)F)cc(C(F)(F)F)c2)cc1C(F)(F)F [Example 6, N-1-[4-Cyano-3-(Trifluoromethyl)Phenyl]-3,5-Di(Trifluoromethyl)Benzamide] |  |  |  | 1.6 | 95 | 10 | Tox 0.1 mM | 
O=C(Nc1ccc([N+](=O)[O-])cc1Cl)c1ccc2ccccc2c1O [Example 8, 2′-Chloro-1-Hydroxy-4′-Nitro-2-Naphthanilide] |  |  |  | 12 | 80 | 100 |  | 
O=C(Nc1ccc(Br)cc1Cl)c1cc(Br)ccc1O [Example 9, N-(2-Chloro-4-Bromophenyl)-5-Bromosalicylanilide] | 2.3 | 100 | 10 |  |  |  |  | 
CCc1cc(C#N)cc2c(C)c(C)[nH]c12 [Example 22, 2,3-Dimethyl-5-Cyano-7-Ethylindole] | 91 | 100 | 1000 |  |  |  |  | 
N#Cc1c(-c2ccc(Cl)cc2)[nH]c(C(F)(F)F)c1Br [Example 23, 4-Bromo-2-(4-Chlorophenyl)-5-Trifluoromethyl-1H-Pyrrole-3-Carbonitrile] |  |  |  | 1.75 | 117 | 30 |  | 
Cc1ccc2[nH]cc(C=C(C#N)C#N)c2c1 [Example 31, 2-((5-Methyl-1H-Indol-3-Yl)Methylene)Malononitrile] | ≥ 300 | 0 |  |  |  |  |  | 
O=C(Nc1ccc([N+](=O)[O-])c(C(F)(F)F)c1)c1cc(F)cc(C(F)(F)F)c1 [Example 65, 3-Fluoro-N-(4-Nitro-3-Trifluoromethyl-Phenyl)-5-Trifluoromethyl-Benzamide] | 5.3 | 100 | 10 |  |  |  |  | 
O=C(Nc1ccc([N+](=O)[O-])c(C(F)(F)F)c1)c1ccc(F)c(C(F)(F)F)c1 [Example 67, 4-Fluoro-N-(4-Nitro-3-Trifluoromethyl-Phenyl)-3-Trifluoromethyl-Benzamide] | 5.9 | 85 | 30 |  |  |  |  | 

Second part, led by results:

EC50 [1] [µM] | SMILES | Emax [2] [%] | EC (Emax) [3] [µM] | EC50 (read-out: HEP-G2 EC50) [µM] | Emax [4] [%] | EC (Emax) [5] [µM] | HEP-G2 Tox (concentration with sign of toxicity (significant drop in glucose utilisation)) | HEP-G2 Tox (human, 3 h)
6 | CC(C)(C)c1cc(/C=N/C(C#N)=C(\N)C#N)cc(C(C)(C)C)c1O [Example 17, 2-Amino-S-[(3,5-Di-Tert-Butyl-4-Hydroxybenzylidone)-Amino]-But-2-Enedinitrile] | 45 | 30 |  |  |  |  | Tox 0.1 mM
42 | N#Cc1cc(NC(=O)c2cccc(C(F)(F)F)c2)ccc1Sc1ccccc1 [Example 24, N-(3-Cyano-4-Phenylsulfanyl-Phenyl)-3-Trifluoromethyl-Benzamide] | 65 | 100 |  |  |  |  | 
35.5 | Cc1cc(C)c2[nH]cc(C=C(C#N)C#N)c2c1 [Example 28, 2-(5,7-Dimethyl-1H-Indol-3-Ylmethylene)-Malononitrile] | 35 | 300 |  |  |  |  | 
13 | N#CC(C#N)=Cc1c[nH]c2ccc(Br)cc12 [Example 29, 2-(5-Bromo-1H-Indol-3-Ylmethylene)-Malononitrile] | 65 | 30 |  |  |  |  | 
3.35 | CC(C)c1cccc(C(=O)Nc2ccc([N+](=O)[O-])cc2Cl)c1O [Example 38, N-(2-Chloro-4-Nitro-Phenyl)-2-Hydroxy-3-Isopropyl-Benzamide] | 105 | 30 |  |  |  |  | 
6 | Cc1ccc(C(C)C)c(O)c1C(=O)Nc1ccc([N+](=O)[O-])cc1Cl [Example 39, N-(2-Chloro-4-Nitro-Phenyl)-2-Hydroxy-3-Isopropyl-6-Methyl-Benzamide] | 55 | 10 |  |  |  |  | 
4 | Cc1c(Br)cc(C(C)C)c(O)c1C(=O)Nc1ccc([N+](=O)[O-])cc1Cl [Example 41, 3-Bromo-N-(2-Chloro-4-Nitro-Phenyl)-6-Hydroxy-5-Isopropyl-2-Methyl-Benzamide] | 103 | 30 |  |  |  |  | 
0.6 | Cc1cc(C(=O)Nc2ccc([N+](=O)[O-])cc2Cl)c(O)c(C(C)(C)C)c1 [Example 45, 3-Tert-Butyl-N-(2-Chloro-4-Nitro-Phenyl)-2-Hydroxy-5-Methyl-Benzamide] | 96 | 3 |  |  |  |  | 
3 | Cc1ccc(C(C)C)c(C(=O)Nc2ccc([N+](=O)[O-])cc2Cl)c1O [Example 46, N-(2-Chloro-4-Nitro-Phenyl)-2-Hydroxy-6-Isopropyl-3-Methyl-Benzamide] | 103 | 10 |  |  |  |  | 
0.31 | Cc1c(Br)cc(C(C)C)c(O)c1C(=O)Nc1ccc([N+](=O)[O-])cc1C(F)(F)F [Example 57, 3-Bromo-6-Hydroxy-5-Isopropyl-2-Methyl-N-(4-Nitro-2-Trifluoromethyl-Phenyl)-Benzamide] | 90 | 10 |  |  |  |  | 
2.6 | O=C(Nc1cc(C(F)(F)F)cc(C(F)(F)F)c1)c1cc(F)cc(C(F)(F)F)c1 [Example 64, N-(3,5-Bis-Trifluoromethyl-Phenyl)-3-Fluoro-5-Trifluoromethyl-Benzamide] | 105 | 10 |  |  |  |  | 
4.3 | O=C(Nc1cc(C(F)(F)F)cc(C(F)(F)F)c1)c1ccc(C(F)(F)F)c(F)c1 [Example 66, N-(3,5-Bis-Trifluoromethyl-Phenyl)-3-Fluoro-4-Trifluoromethyl-Benzamide] | 95 | 10 |  |  |  |  | 
2.9 | CC(C)(C)c1cc(/C=C(\C#N)c2ccncc2)cc(C(C)(C)C)c1O [Example 78, 3-(3,5-Di-Tert-Butyl-4-Hydroxy-Phenyl)-2-Pyridin-4-Yl-Acrylonitrile] | 80 | 10 |  |  |  |  | 
1 | CC(C)(C)c1cc(/C=C(\C#N)c2cc(C(F)(F)F)cc(C(F)(F)F)c2)cc(C(C)(C)C)c1O [Example 79, 2-(3,5-Bis-Trifluoromethyl-Phenyl)-3-(3,5-Di-Tert-Butyl-4-Hydroxy-Phenyl)-Acrylonitrile] | 80 | 3 |  |  |  |  | Tox 0.3 mM
